Measured values published in patent US8471061B2 (priority 2004, dated 2013).
Several values for one entry are separate records, joined by “and”; a condition that tells them apart may be missing. Equal values may be shown once.

How the values were obtained:
[1] = tested on: spiderwort Commelina communis; assay: Plant activating effect, foliar application, spiderwort; format: in vivo; conditions: 21 days, 12 plants
Protocol: A total of 12 pots, in which 600 g of volcanic ash soil was packed in a porcelain pot of 12 cm in inner diameter, and 1 plant of a spiderwort Commelina communis grown to a height of 15 cm was planted in 1 pot, were prepared and placed under a constant temperature environment of 20° C., and foliar application treatment was carried out once a day using the following application liquids. Conditions of the leaves 21 days thereafter were observed.

Rice seeds (Akinishiki) = assay: Plant growth regulation effect; format: in vivo; conditions: ratio to untreated plot
Protocol: Rice seeds (Akinishiki) were soaked in Benlate (manufactured by Sumika Takeda Engei) (200 times) aqueous solution for a whole day and night and then incubated at 30° C. under a dark condition to effect hastening of germination. Seeds of even pigeon breast stage were selected, 10 seeds were inserted using a pair of tweezers into a groove on one expanded polyethylene sheet, which was made using a cutter knife, and this sheet was floated on a tall Petri dish filled with 150 ml of 5-aminolevulinic acid phosphate of respective concentrations shown in Table 11 and incubated at 25° C. for 24 hours under 5,000 lux continuous light irradiation. The number of repetitions was set to 3 repetitions for each concentration. Examination was carried out three days thereafter, and lengths of the first leaf sheath and seminal root in each plot were measured to calculate their ratios to those in the untreated plot and to calculate average values thereof.

Chlorella sp. = assay: Culturing of plankton; format: cell-based; conditions: 1 mM additive
Protocol: (§1) 5-Aminolevulinic acid nitrate was added, to a concentration of 1 mM (194 ppm), to 100 ml of a sterilized culture shown in Table 17 (components of the culture), and a Chlorella sp. was inoculated therein and cultured on a reciprocal shaker at 30° C. under aerobic and dark conditions to measure the amount of cells (OD 660).
as §1, with “acid hydrochloride” for “acid nitrate”, “mM (168” for “mM (194”, “of the” for “of a”, “and the” for “and a”
The Chlorella sp. was inoculated into 100 ml of the sterilized culture shown in Table 17 (components of the culture) and cultured on a reciprocal shaker at 30° C. under aerobic and dark conditions to measure the amount of cells (OD 660).

[2] = Acidity measurement of aqueous solutions with a pH meter; format: physicochemical; conditions: 1 to 1000 mM, 25° C., same concentration
Protocol: Aqueous 5-aminolevulinic acid phosphate solutions and aqueous 5-aminolevulinic acid hydrochloride solutions having a concentration of from 1 to 1000 mM were respectively prepared, and their acidity was measured at 25° C. using a pH meter.

[3] = tested on: Salmonella typhimurium TA 98; assay: Back mutation test, TA98; format: cell-based
Protocol: A test was carried out in accordance with the “Standard of Mutagenicity Tests Using Microorganisms” (Ministry of Labor Notification No. 77, 1988) (partial revision by Ministry of Labor Notification No. 67, 1997) and “Regarding the Tests Concerning Novel Chemical Substances and the like” (dated Nov. 21, 2003: Yaku-Shoku-Hatsu No. 1121002, 2003.11.13 Sei-Kyoku, No. 2, Kan-Ho-Ki-Hatsu No. 031121002). To 0.1 ml of a solution prepared by dissolving 5% (w/v) of 5-aminolevulinic acid phosphate in distilled water (Wako Pure Chemical Industries), 0.5 ml of 0.1 M sodium-phosphate buffer (pH 7.4) (0.5 ml S9 mix in the case of metabolism activation test) was added, and 0.1 ml of each test strain suspension (5 strains of histidine-less Salmonella typhimurium TA 100, TA 98, TA 1535 and TA 1537 and tryptophan-less Escherichia coli WP2 uvrA were used (Japan Bioassay Research Center)) was further added thereto, followed by pre-incubation at 37° C. for 20 minutes while shaking. After completion of the culturing, 2.0 ml of top agar kept at 45° C. in advance was added thereto and layered on a minimum glucose agar plate medium. In this case, 2 plates were arranged for each dosage. However, 3 plates were arranged for a solvent control (negative control). […] In the measurement, an inner area of about 80 mm in diameter of a plate of 86 mm in diameter (84 mm in inner diameter) was measured using an automatic colony analyzer (CA-11: manufactured by System Science), and calculated by carrying out area correction and counting loss correction using a personal computer. However, since reliability of the automatic colony analyzer is reduced when the number of colonies is 1,500 or more, 5 points in the plate were manually measured under the stereoscopic microscope to carry out area correction of the average value. A dosage setting test was carried out on 7 dosages diluted at a common ratio of 4, using a dosage of 5,000 μg/plate as the maximum which is the maximum dosage defined by the guideline. […] Growth inhibition of the strains by this substance to be tested was not found. […] Thus, this test was carried out by setting 5 dosages diluted at a common ratio of 2, using a dosage of 5,000 μg/plate as the maximum which is the maximum dosage defined by the guideline.

| SMILES | plants judged 0: Abnormality was not found on the leaf surface ([1]; 1 ppm in tap water) [plants] | plants judged 1: A region discolored to yellow was found on the leaf surface ([1]; 1 ppm in tap water) [plants] | plants judged 2: A necrotic region was found on the leaf surface ([1]; 1 ppm in tap water) | plants judged 0: Abnormality was not found on the leaf surface ([1]; 10 ppm in tap water) [plants] | plants judged 1: A region discolored to yellow was found on the leaf surface ([1]; 10 ppm in tap water) [plants] | plants judged 2: A necrotic region was found on the leaf surface ([1]; 10 ppm in tap water) [plants] | plants judged 0: Abnormality was not found on the leaf surface ([1]; 100 ppm in tap water) [plants] | plants judged 1: A region discolored to yellow was found on the leaf surface ([1]; 100 ppm in tap water) [plants] | plants judged 2: A necrotic region was found on the leaf surface ([1]; 100 ppm in tap water) [plants] | First leaf sheath length (%) (Rice seeds (Akinishiki); 1 ppm) | Seminal root length (%) (Rice seeds (Akinishiki); 1 ppm) | First leaf sheath length (%) (Rice seeds (Akinishiki); 10 ppm) | Seminal root length (%) (Rice seeds (Akinishiki); 10 ppm) | First leaf sheath length (%) (Rice seeds (Akinishiki); 100 ppm) | Seminal root length (%) (Rice seeds (Akinishiki); 100 ppm) | other results |
| --- | --- | --- | --- | --- | --- | --- | --- | --- | --- | --- | --- | --- | --- | --- | --- | --- |
| Cl.NCC(=O)CCC(=O)O [5-aminolevulinic acid hydrochloride, reference compound] | 2 | 7 | 3 plants | 5 | 5 | 2 | 5 | 4 | 3 | 107 | 103 | 101 | 96 | 98 | 109 | amount of cells: OD 660 nm (Chlorella sp.; Culture time 0 day): 1.8; amount of cells: OD 660 nm (Chlorella sp.; Culture time 1 day): 6.3; amount of cells: OD 660 nm (Chlorella sp.; Culture time 2 day): 12.5; amount of cells: OD 660 nm (Chlorella sp.; Culture time 3 day): 14.8 |
| NCC(=O)CCC(=O)O.O=P(O)(O)O [5-aminolevulinic acid phosphate, 5-aminolevulinic Acid Phosphate] | 6 | 5 | 1 plant^ plants | 7 | 3 | 2 | 6 | 4 | 2 | 102 | 106 | 106 | 108 | 101 | 101 | acidity of aqueous solution (FIG. 1) [2]: lower than that of the aqueous 5-aminolevulinic acid hydrochloride solution; number of back mutation, mean (in parentheses) ([3]; S9 Mix(+), 313 μg/plate): (12) colonies/plate; number of back mutation, single plates ([3]; S9 Mix(+), 313 μg/plate, Phosphate): 13 colonies/plate and 11 colonies/plate; number of back mutation, mean (in parentheses) ([3]; S9 Mix(+), 625 μg/plate): (9) colonies/plate; number of back mutation, single plates ([3]; S9 Mix(+), 625 μg/plate): 9 colonies/plate; number of back mutation, mean (in parentheses) ([3]; S9 Mix(+), 1250 μg/plate): (21) colonies/plate; number of back mutation, single plates ([3]; S9 Mix(+), 1250 μg/plate, Phosphate): 14 colonies/plate and 27 colonies/plate; number of back mutation, mean (in parentheses) ([3]; S9 Mix(+), 2500 μg/plate): (11) colonies/plate; number of back mutation, mean (in parentheses) ([3]; S9 Mix(+), 5000 μg/plate): (21) colonies/plate; number of back mutation, single plates ([3]; S9 Mix(+), 5000 μg/plate, Phosphate): 20 colonies/plate and 21 colonies/plate; number of back mutation, mean (in parentheses) ([3]; S9 Mix(−), 313 μg/plate): (8) colonies/plate; number of back mutation, single plates ([3]; S9 Mix(−), 313 μg/plate, Phosphate): 9 colonies/plate and 7 colonies/plate; number of back mutation, mean (in parentheses) ([3]; S9 Mix(−), 625 μg/plate): (9) colonies/plate; number of back mutation, mean (in parentheses) ([3]; S9 Mix(−), 1250 μg/plate): (6) colonies/plate; number of back mutation, mean (in parentheses) ([3]; S9 Mix(−), 2500 μg/plate): (16) colonies/plate; number of back mutation, single plates ([3]; S9 Mix(−), 2500 μg/plate, Phosphate): 15 colonies/plate and 17 colonies/plate; number of back mutation, mean (in parentheses) ([3]; S9 Mix(−), 5000 μg/plate): (8) colonies/plate; number of back mutation, single plates ([3]; S9 Mix(−), 5000 μg/plate, Phosphate): 9 colonies/plate and 7 colonies/plate |
